# In ChEMBL document CHEMBL1148656, “Synthesis, SAR exploration, and X-ray crystal structures of factor XIa inhibitors containing an alpha-ketothiazole arginine” (Bioorg Med Chem Lett, 2006):
# Target: Coagulation factor XI (Homo sapiens, UniProt P03951)
# Sequence (P03951 19-387 limits assumed): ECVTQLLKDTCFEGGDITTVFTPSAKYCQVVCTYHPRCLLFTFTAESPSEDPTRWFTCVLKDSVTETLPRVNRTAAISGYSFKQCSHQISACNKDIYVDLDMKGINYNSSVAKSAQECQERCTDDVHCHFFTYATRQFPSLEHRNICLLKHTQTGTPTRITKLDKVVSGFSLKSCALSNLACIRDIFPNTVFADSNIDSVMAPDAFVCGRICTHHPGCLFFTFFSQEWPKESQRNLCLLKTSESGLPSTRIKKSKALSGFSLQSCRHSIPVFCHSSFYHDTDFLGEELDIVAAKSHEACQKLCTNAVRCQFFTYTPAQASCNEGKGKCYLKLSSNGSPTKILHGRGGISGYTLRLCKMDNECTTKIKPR
# Sequence (P03951 388-625 limits assumed): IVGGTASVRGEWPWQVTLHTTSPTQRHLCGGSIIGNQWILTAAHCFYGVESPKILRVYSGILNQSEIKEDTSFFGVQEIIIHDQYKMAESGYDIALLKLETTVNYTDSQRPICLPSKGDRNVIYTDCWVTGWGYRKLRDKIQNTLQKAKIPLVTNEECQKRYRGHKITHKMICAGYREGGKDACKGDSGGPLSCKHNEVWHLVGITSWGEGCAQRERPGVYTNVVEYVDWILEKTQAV
row,IC50 [µM],SMILES
1,86,N=C(N)NCCC[C@H](NS(=O)(=O)c1ccc2ccccc2c1)C(=O)c1nccs1
2,37.9,NC(N)=NCCC[C@H](NC(=O)Cc1ccc(Cl)c(Cl)c1)C(=O)c1nccs1
3,0.713,CC(C)[C@H](NC(=O)N[C@@H]1C[C@@H]2C[C@H]([C@H]1C)C2(C)C)C(=O)N[C@@H](CCCN=C(N)N)C(=O)c1nccs1
4,250,N=C(N)NCCC[C@H](NS(=O)(=O)c1cccc2ccccc12)C(=O)c1nccs1
5,5.9,N=C(N)NCCC[C@H](NC(=O)c1cc(F)cc2c1OCOC2)C(=O)c1nccs1
6,> 250,NC(N)=NCCC[C@H](NC(=O)Cc1cccc2ccccc12)C(=O)c1nccs1
7,> 200,N=C(N)NCCC[C@H](NC(=O)c1ccc2ccccc2c1)C(=O)c1nccs1
8,0.116,CC(C)[C@H](NC(=O)[C@H](O)c1cccc(Cl)c1)C(=O)N[C@@H](CCCN=C(N)N)C(=O)c1nccs1

# Further lines, the molecule ahead of its results:
row,SMILES,IC50 [µM]
1,CC(C)[C@H](CC(=O)NCc1ccc(Cl)c(Cl)c1)C(=O)N[C@@H](CCCN=C(N)N)C(=O)c1nccs1,6.22
2,CC(C)[C@H](NC(=O)N[C@H]1C[C@H]2C[C@@H]([C@@H]1C)C2(C)C)C(=O)N[C@@H](CCCN=C(N)N)C(=O)c1nccs1,3.31
3,CC(C)[C@H](NC(=O)[C@H](O)c1cccc(F)c1)C(=O)N[C@@H](CCCN=C(N)N)C(=O)c1nccs1,0.956
4,NC(N)=NCCC[C@H](NC(=O)c1cccc2ccccc12)C(=O)c1nccs1,2.25
5,CC(C)[C@H](NC(=O)NCc1ccc(Cl)c(Cl)c1)C(=O)N[C@@H](CCCN=C(N)N)C(=O)c1nccs1,0.48
6,CC(C)CC(=O)N[C@@H](CCCN=C(N)N)C(=O)c1nccs1,123
